Source: patent US6534638B1, “Recombinant DNA molecules encoding aminopeptidase enzymes and their use in the preparation of vaccines against helminth infections” (priority 1992, dated 2003)
Where two headings read alike, the source gives them in different places.

How the values were obtained:
[1] = tested on: H110D aminopeptidase A-like activity; test: Inhibitor sensitivity of ConA H110D, α-glutamic acid-pNA substrate; type: biochemical, Haemonchus contortus
Text: (§1) α-amino acylpeptide hydrolase (microsomal) aminopeptidase activities in H110D preparations were characterised by assays, in solution, using L-leucine, methionine, phenylalanine, α-glutamic acid and lysine p-nitroanilides (pNA). All the amino acid p-nitroanilide substrates (except α-glutamic acid) were obtained from Sigma, Poole, Dorset UK, α-glutamic acid was from Fluka, Dorset, UK. Single hydrophobic (leucine- or phenylalanine-) and charged (α-glutamic acid-) amino acid pNA known to be substrates for mammalian aminopeptidase-M (ApM) and -A (ApA) respectively, were chosen to measure the effect of enzyme inhibitors and serum inhibition on H110D aminopeptidase activities.
(§2) Micro-ELISA plate (Dynatech Immulon 1, Virginia, USA) wells were each filled with 250 μl of either 50 mM HEPES or MOPS pH 7 plus 1-10 μl of the fraction to be assayed. The plates were then pre-incubated at 37° C. for 10 minutes prior to the addition of 10 μl of 25 mM amino acid p-nitroanilide substrate per well. The time zero optical density (OD) at 405 nm was then measured using an ELISA plate reader and the plates were then incubated at 37° C. for 15-30 minutes. The final OD reading was then taken as before and the OD change per minute per milligram of protein calculated.
(§3) The method used for the enzyme assay was as described in (a) above except that the inhibitors were added to the 250 μl of buffer plus 10 μl of 1 mg/ml ConA H110D and pre-incubated for 10 minutes at 37° C. prior to addition of the substrates (leucine-pNA or α-glutamic acid-pNA). The percentage inhibition was calculated as follows [formula]
(§4) Where x=the ΔOD/min of the enzyme with no inhibitor added and y=ΔOD/min of the enzyme plus inhibitor. Nine compounds with differing enzyme class inhibition were tested individually: Amastatin, Bestatin (metalloprotease, aminopeptidase), 1,10 phenanthroline, EDTA (metalloprotease), phosphoramidon (metalloprotease, thermolysin, collagenase), Aproptinin (serine protease), Pepstatin (aspartic protease), PMSF (serine and cysteine protease) and E64 (cysteine protease). Amastatin, bestatin, 1,10 phenanthroline, PMSF and pepstatin were obtained from Sigma, Dorset, UK. All the other inhibitors were obtained from Boehringer-Mannheim. Each inhibitor was used at two concentrations equal to or greater than the maximum concentrations recommended by Boehringer-Mannheim.

[2] = tested on: H110D aminopeptidase M-like activity; type: biochemical, Haemonchus contortus
Text: as §1, §2, §3
as §4, with “Boehringer-Mannheim.” for “Boehringer-Mannheim. Each inhibitor was used at two concentrations equal to or greater than the maximum concentrations recommended by Boehringer-Mannheim.”

Row | Structure (SMILES) | PERCENTAGE INHIBITION α-glutamic acid-p-nitroanilide substrate ([1]; inhibitor 1 mM) [%] | PERCENTAGE INHIBITION α-glutamic acid-p-nitroanilide substrate ([1]; inhibitor 10 mM) [%] | Ranking of inhibitors of H110D aminopeptidase activities ([2]; 5 mM) | PERCENTAGE INHIBITION Leucine-p-nitroanilide substrate ([2]; inhibitor 1 mM, ConA H110D) [%] | PERCENTAGE INHIBITION Leucine-p-nitroanilide substrate ([2]; inhibitor 10 mM, ConA H110D) [%] | PERCENTAGE INHIBITION α-glutamic acid-p-nitroanilide substrate ([1]; inhibitor 10 μM) [%] | PERCENTAGE INHIBITION α-glutamic acid-p-nitroanilide substrate ([1]; inhibitor 50 μM) [%] | PERCENTAGE INHIBITION Leucine-p-nitroanilide substrate ([2]; inhibitor 10 μM, ConA H110D) [%] | PERCENTAGE INHIBITION Leucine-p-nitroanilide substrate ([2]; inhibitor 50 μM, ConA H110D) [%] | PERCENTAGE INHIBITION α-glutamic acid-p-nitroanilide substrate ([1]; inhibitor 100 μM) [%] | Reduction of activity against leucine-p-nitroanilide ([2]; ConA H110D, concentration recommended by the supplier) | PERCENTAGE INHIBITION Leucine-p-nitroanilide substrate ([2]; inhibitor 100 μM, ConA H110D) [%]
1 | c1cnc2c(c1)ccc1cccnc12 [1, 10 phenanthroline, 1,10 phenanthroline] | 78 | 85 | most effective inhibitor | 78 | 87 | – | – | – | – | – | – | –
2 | CC(C)C[C@@H](N)[C@H](O)C(=O)N[C@H](C(=O)N[C@H](C(=O)N[C@@H](CC(=O)O)C(=O)O)C(C)C)C(C)C [Amastatin] | – | – | – | – | – | 0 | 0 | 61 | 66 | – | – | –
3 | CC(C)C[C@H](NC(=O)[C@@H](O)[C@H](N)Cc1ccccc1)C(=O)O [Bestatin] | – | – | – | – | – | – | 23 | – | 63 | 35 | approximately 70% | 68
4 | O=C(O)CN(CCN(CC(=O)O)CC(=O)O)CC(=O)O [EDTA, ethylenediaminetetraacetic acid] | 17 | 21 | – | 8 | 16 | – | – | – | – | – | – | –
5 | CC(C)C[C@H](NP(=O)(O)O[C@@H]1O[C@@H](C)[C@H](O)[C@@H](O)[C@H]1O)C(=O)N[C@@H](Cc1c[nH]c2ccccc12)C(=O)O [Phosphoramidon, phosphoramidon] | – | – | – | – | – | 1 | 1 | 0.8 | 7 | – | – | –
